The results in this text go back to patent US11925629B2, “Heterocyclic inhibitors of ERK1 and ERK2 and their use in the treatment of cancer” (Asana Biosciences, LLC, priority 2015, dated 2024).

The subject of assay [1] is phosphorylation of RSK1(S380) (the downstream target of ERK1/2). Kind of assay: Phospho-RSK1(S380) ELISA assay in HT-29 cells. The format is cell-based, human. Conditions: Homo sapiens, HT-29, HT29 cells, read-out: Mechanistic Cell Assay RSK1 Phos HT29 IC50. Here is the method:
Phospho-RSK1(S380) ELISA Assay
HT-29 cells (colorectal carcinoma, B-RafV600E); obtained from ATCC, USA) were seeded (60,000 cells/well) in a 96-well plate and incubated at 37° C./5% CO2 overnight and then treated with desired compound dilutions for 2 h. Medium was removed and cells were rinsed once with ice-cold 1×PBS, then 0.070 mL ice-cold 1× cell lysis buffer containing 1 mM PMSF was added to each well and the plate was incubated on a shaker for 2 h and 30 min at 4° C. The plate was then centrifuged for 20 min (×4000 rpm) at 4° C. and the supernatant was transferred to a new plate. Cell lysates were diluted with sample diluent at a ratio of 1:1. The ELISA was then carried out following the manufacturer's protocol (PathScan® phospho-RSK1(Ser380) Sandwich ELISA Kit, Cell Signaling Technologies). The plate was read at 450 nm within 30 min after adding STOP solution. The IC50 values were subsequently determined using a sigmoidal dose-response curve (variable slope) in GraphPad Prism® 5 software.

For assay [2], the system named is HCT116 (colorectal carcinoma, K Ras G13D) cells. The experiment in a line: Cell proliferation (Alamar Blue) assay, HCT116. The format is cell-based, human. The note with it: Homo sapiens, HCT-116, HCT116 cells. A digest of the protocol:
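Fluorescence read-out (ex 540 nm, em 590 nm) after 1-3 h with 1× Alamar Blue, following 72 h compound exposure at 37° C./5% CO2. Compounds tested at typically 0.0005 to 10 uM, 3-fold steps; IC50 by sigmoidal dose-response (variable slope).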

Like-named read-outs stand apart in the source and are kept apart here.

As for `Cc1cnc(NC2CCS(=O)(=O)C2)nc1-n1cnc(C(=O)N[C@H](CO)c2cccc(Cl)c2)c1` (stereo partly drawn) [Example 246, N-((S)-1-(3-chlorophenyl)-2-hydroxyethyl)-1-(2-((1,1-dioxidotetrahydrothiophen-3-yl)amino)-5-methylpyrimidin-4-yl)-1H-imidazole-4-carboxamide], the IC50 in assay [1] (phospho-RSK1(S380)) and in assay [2] was over 2500 nM throughout.
For `Cc1cnc(NC2CCC(F)(F)CC2)nc1-n1cnc(C(=O)N[C@H](CO)c2cccc(Cl)c2)c1` [Example 240, (S)-N-(1-(3-chlorophenyl)-2-hydroxyethyl)-1-(2-((4,4-difluorocyclohexyl)amino)-5-methylpyrimidin-4-yl)-1H-imidazole-4-carboxamide], the IC50 in assay [1] (phospho-RSK1(S380)) lay within 100 to 250 nM; in assay [2], 250 to 500 nM.
For `Cc1cnc(NC2CCOCC2)nc1-n1cnc(C(=O)NC(CO)c2cccc(C(C)(C)C)c2)c1` (stereo not shown) [Example 258, N-(1-(3-(tert-butyl)phenyl)-2-hydroxyethyl)-1-(5-methyl-2-((tetrahydro-2H-pyran-4-yl)amino)pyrimidin-4-yl)-1H-imidazole-4-carboxamide] the same measures were 250 to 500 nM and 500 to 2500 nM.
For `Cc1cnc(Nc2ccc(F)cc2)nc1-n1cnc(C(=O)NCc2cccc(Cl)c2CO)c1` [Example 262, N-(3-chloro-2-(hydroxymethyl)benzyl)-1-(2-((4-fluorophenyl)amino)-5-methylpyrimidin-4-yl)-1H-imidazole-4-carboxamide] the same measures were at most 100 nM and 500 to 2500 nM.
In the same order, the values of `Cc1cnc(Nc2cccc(N3CCOCC3)c2)nc1-n1cnc(C(=O)N[C@H](CN)c2cccc(Cl)c2)c1` [Example 272, (S)-N-(2-amino-1-(3-chlorophenyl)ethyl)-1-(5-methyl-2-((3-morpholinophenyl)amino)pyrimidin-4-yl)-1H-imidazole-4-carboxamide] are 250 to 500 nM and 100 to 250 nM.
With `Cc1cnc(Nc2ccc(F)c(N3CCOCC3)c2)nc1-n1cnc(C(=O)NC(CN)c2cccc(Cl)c2)c1` (stereo not shown) [Example 256, N-(2-amino-1-(3-chlorophenyl)ethyl)-1-(2-((4-fluoro-3-morpholinophenyl)amino)-5-methylpyrimidin-4-yl)-1H-imidazole-4-carboxamide], the IC50 in assay [1] (phospho-RSK1(S380)) and in assay [2] was at most 100 nM throughout.
As to `Cc1cnc(NC2CC=CCC2)nc1-n1cnc(C(=O)N[C@H](CN)c2cccc(Cl)c2)c1` (stereo partly drawn) [Example 292, N-((S)-2-amino-1-(3-chlorophenyl)ethyl)-1-(2-(cyclohex-3-en-1-ylamino)-5-methylpyrimidin-4-yl)-1H-imidazole-4-carboxamide], the IC50 in assay [1] (phospho-RSK1(S380)) and in assay [2] was at most 100 nM throughout.
As to `Cc1cnc(NC2CCOC2)nc1-n1cnc(C(=O)NC(CN)c2cccc(Cl)c2)c1` (stereo not shown) [Example 235, N-(2-amino-1-(3-chlorophenyl)ethyl)-1-(5-methyl-2-((tetrahydrofuran-3-yl)amino)pyrimidin-4-yl)-1H-imidazole-4-carboxamide], the concentration for half-maximal inhibition (IC50) in assay [1] (phospho-RSK1(S380)) and in assay [2] was 100 to 250 nM in each case.
`Cc1cnc(NC2CCOCC2)nc1-n1cnc(C(=O)N[C@]2(c3cccc(Cl)c3)C[C@@H](O)C2)c1` [Example 245, N-((1s,3s)-1-(3-chlorophenyl)-3-hydroxycyclobutyl)-1-(5-methyl-2-((tetrahydro-2H-4-yl)amino)pyrimidin-4-yl)-1H-imidazole-4-carboxamide]: the concentration for half-maximal inhibition (IC50) is 250 to 500 nM in assay [1] (phospho-RSK1(S380)) and 500 to 2500 nM in assay [2].
Consider `Cc1cnc(Nc2ccc(F)cc2)nc1-n1cnc(C(=O)N[C@@H](CN)c2cccc(Cl)c2)c1` [Example 249, (R)-N-(2-amino-1-(3-chlorophenyl)ethyl)-1-(2-((4-fluorophenyl)amino)-5-methylpyrimidin-4-yl)-1H-imidazole-4-carboxamide], for which the half-maximal inhibitory concentration (IC50) in assay [1] (phospho-RSK1(S380)) and in assay [2] was 500 to 2500 nM each time.
Turning to `Cc1cnc(NC2CC(F)(F)C2)nc1-n1cnc(C(=O)N[C@@H](CN)c2cc(F)cc(Cl)c2)c1` [Example 289, (R)-N-(2-amino-1-(3-chloro-5-fluorophenyl)ethyl)-1-(2-((3,3-difluorocyclobutyl)amino)-5-methylpyrimidin-4-yl)-1H-imidazole-4-carboxamide], the IC50 in assay [1] (phospho-RSK1(S380)) is 500 to 2500 nM; in assay [2], over 2500 nM.
For `Cc1cnc(NC2CCOCC2)nc1-n1cnc(C(=O)NC(c2cccc(Cl)c2)C(C)O)c1` (single isomer, unassigned; isomer #2) [Example 252, N-(1-(3-chlorophenyl)-2-hydroxypropyl)-1-(5-methyl-2-((tetrahydro-2H-pyran-4-yl)amino)pyrimidin-4-yl)-1H-imidazole-4-carboxamide (isomer #2)] the same measures were 100 to 250 nM and 250 to 500 nM.
In the same order, the values of `Cc1cnc(Nc2ccc3c(c2)OCO3)nc1-n1cnc(C(=O)NC(CN)c2cc(F)cc(Cl)c2)c1` (stereo not shown) [Example 269, N-(2-amino-1-(3-chloro-5-fluorophenyl)ethyl)-1-(2-(benzo[d][1,3]dioxol-5-ylamino)-5-methylpyrimidin-4-yl)-1H-imidazole-4-carboxamide] are at most 100 nM and at most 100 nM.
`Cc1cnc(N[C@H]2CCOC2)nc1-n1cnc(C(=O)NCc2cc(Cl)cc(Cl)c2)c1` [Example 313, (S)-N-(3,5-dichlorobenzyl)-1-(5-methyl-2-((tetrahydrofuran-3-yl)amino)pyrimidin-4-yl)-1H-imidazole-4-carboxamide]: the values for the half-inhibitory concentration (IC50) in assay [1] and in assay [2] were 250 to 500 nM and over 2500 nM, respectively.
Turning to `Cc1cnc(Nc2ccc(F)cc2)nc1-n1cnc(C(=O)N[C@H](CN)c2cccc(Cl)c2)c1` [Example 248, (S)-N-(2-amino-1-(3-chlorophenyl)ethyl)-1-(2-((4-fluorophenyl)amino)-5-methylpyrimidin-4-yl)-1H-imidazole-4-carboxamide], the IC50 was 100 to 250 nM in assay [1] (phospho-RSK1(S380)) and at most 100 nM in assay [2].
For `O=C(Nc1cnn(-c2ccnc(Nc3ccccc3)c2)c1)N[C@H](CO)c1cccc(Cl)c1` [Example 34, (S)-1-(1-(3-chlorophenyl)-2-hydroxy-ethyl)-3-(1-(2-(phenyl-amino)pyridin-4-yl)-1H-pyrazol-4-yl)urea] the same measures were over 2500 nM and over 2500 nM.
As to `Cc1cnc(N[C@H]2CCOC2)nc1-n1cnc(C(=O)NCc2cccc(C(F)(F)F)c2)c1` [Example 311, (S)-1-(5-methyl-2-((tetrahydrofuran-3-yl)amino)pyrimidin-4-yl)-N-(3-(trifluoromethyl)benzyl)-1H-imidazole-4-carboxamide], the IC50 was 500 to 2500 nM in assay [1] and over 2500 nM in assay [2].
Turning to `Cc1cnc(N[C@H]2CC[C@@H](O)CC2)nc1-n1cnc(C(=O)N[C@H](CO)c2cccc(Cl)c2)c1` [Example 242, N-((S)-1-(3-chlorophenyl)-2-hydroxyethyl)-1-(2-(((1r,4S)-4-hydroxycyclohexyl)amino)-5-methylpyrimidin-4-yl)-1H-imidazole-4-carboxamide], the IC50 in assay [1] (phospho-RSK1(S380)) was 250 to 500 nM; in assay [2], 500 to 2500 nM.
In the same order, the values of `Cc1ccc(C(CO)NC(=O)c2cn(-c3nc(NC4CCOCC4)ncc3C)cn2)s1` (stereo not shown) [Example 261, N-(2-hydroxy-1-(5-methylthiophen-2-yl)ethyl)-1-(5-methyl-2-((tetrahydro-2H-pyran-4-yl)amino)pyrimidin-4-yl)-1H-imidazole-4-carboxamide] are 500 to 2500 nM and over 2500 nM.
For `Cc1cnc(NC2CCOCC2)nc1-n1cnc(C(=O)NC(CO)c2cccs2)c1` (stereo not shown) [Example 233, N-(2-hydroxy-1-(thiophen-2-yl)ethyl)-1-(5-methyl-2-((tetrahydro-2H-pyran-4-yl)amino)pyrimidin-4-yl)-1H-imidazole-4-carboxamide] the same measures were at most 100 nM and over 2500 nM.
In the same order, the values of `Cc1cnc(Nc2ccc3c(c2)OCO3)nc1-n1cnc(C(=O)N[C@H](CN)c2cccc(Cl)c2)c1` [Example 266, (S)-N-(2-amino-1-(3-chlorophenyl)ethyl)-1-(2-(benzo[d][1,3]dioxol-5-ylamino)-5-methylpyrimidin-4-yl)-1H-imidazole-4-carboxamide] are at most 100 nM and at most 100 nM.
For `Cc1cnc(NC2CCOCC2)nc1-n1cnc(C(=O)NC(CO)c2cccc(C(F)(F)F)c2)c1` (stereo not shown) [Example 237, N-(2-hydroxy-1-(3-(trifluoromethyl)phenyl)ethyl)-1-(5-methyl-2-((tetrahydro-2H-pyran-4-yl)amino)pyrimidin-4-yl)-1H-imidazole-4-carboxamide], the IC50 in assay [1] (phospho-RSK1(S380)) is 250 to 500 nM; in assay [2] it was over 2500 nM.
Turning to `Cc1cnc(N[C@H]2CCOC2)nc1-n1cnc(C(=O)NCc2ccc(Cl)c(Cl)c2)c1` [Example 314, (S)-N-(3,4-dichlorobenzyl)-1-(5-methyl-2-((tetrahydrofuran-3-yl)amino)pyrimidin-4-yl)-1H-imidazole-4-carboxamide], the half-inhibitory concentration (IC50) in assay [1] is 250 to 500 nM; in assay [2], over 2500 nM.
